One may read the IC50 as the concentration at which inhibition is half-maximal. A low value points to higher potency. The term Kd denotes the concentration at which binding is half-saturated. Read a high Kd as lower affinity.

The target in test [1] is Cbl-b (Homo sapiens (Human), UniProt Q13191). The test is described as follows: Cbl-b LCK Ub TR-FRET assay (Cbl-b Lck HTRF). In kind it is biochemical. The following applies: for IC50: Cbl-b LCK Ub TR-FRET; for fold-selectivity (Cbl-b over C-cbl): ratio C-cbl Lck HTRF IC50 / Cbl-b Lck HTRF IC50. The procedure, abridged: (§1)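 Signal is read once the detection mix has stood 20 min at ambient temperature. Curves are anchored by DMSO as maximum and by omission of LCK as minimum.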
Cbl-b, sequence (Q13191 40-426): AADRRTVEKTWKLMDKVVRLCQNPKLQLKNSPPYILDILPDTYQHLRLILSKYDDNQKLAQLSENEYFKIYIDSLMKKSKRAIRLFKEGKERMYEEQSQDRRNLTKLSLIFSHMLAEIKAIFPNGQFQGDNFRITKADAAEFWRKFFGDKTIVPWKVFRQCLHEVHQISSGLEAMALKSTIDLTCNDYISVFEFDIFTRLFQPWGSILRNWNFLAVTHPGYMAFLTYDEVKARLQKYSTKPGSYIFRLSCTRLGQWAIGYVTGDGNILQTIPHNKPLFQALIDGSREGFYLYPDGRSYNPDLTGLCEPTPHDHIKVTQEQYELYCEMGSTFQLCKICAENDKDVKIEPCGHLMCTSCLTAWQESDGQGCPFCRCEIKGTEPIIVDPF
(Time-resolved FRET reads energy transfer from a long-lived donor to a nearby acceptor.)

In test [2] the target is c-Cbl (Homo sapiens (Human), UniProt P22681). The test is described as follows: C-Cbl LCK Ub TR-FRET assay (C-cbl Lck HTRF). In kind it is biochemical. The procedure, abridged:
as §1

For test [3], the target named is Human Cbl-b (residues 40-426) (Homo sapiens (Human), UniProt Q13191). The test is described as follows: Cbl-b SPR assay. It counts as binding. Particulars: for Fold of selectivity: C-cbl SPR Kd vs Cbl-b SPR Kd; for Kd: SPR, 20° C. In short, it runs like this:
(§2)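 Values derive from a 1:1 model fitted to multicycle kinetics on captured protein (1300-1500 RU), using six 2-fold concentrations, 60 s contact and dissociation of 120-1200 s. In the chaser format, kd comes from a single-exponential fit of % site occupancy over time.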
For orientation: In SPR one partner is held on a chip, and binding of the other changes the refractive index at the surface.

For test [4], the target named is c-Cbl (residues 47-435) (Homo sapiens (Human), UniProt P22681). Briefly: c-Cbl SPR assay. The following applies: 20° C. It counts as binding. In short, it runs like this: as §2
c-Cbl (residues 47-435), sequence (P22681 47-435): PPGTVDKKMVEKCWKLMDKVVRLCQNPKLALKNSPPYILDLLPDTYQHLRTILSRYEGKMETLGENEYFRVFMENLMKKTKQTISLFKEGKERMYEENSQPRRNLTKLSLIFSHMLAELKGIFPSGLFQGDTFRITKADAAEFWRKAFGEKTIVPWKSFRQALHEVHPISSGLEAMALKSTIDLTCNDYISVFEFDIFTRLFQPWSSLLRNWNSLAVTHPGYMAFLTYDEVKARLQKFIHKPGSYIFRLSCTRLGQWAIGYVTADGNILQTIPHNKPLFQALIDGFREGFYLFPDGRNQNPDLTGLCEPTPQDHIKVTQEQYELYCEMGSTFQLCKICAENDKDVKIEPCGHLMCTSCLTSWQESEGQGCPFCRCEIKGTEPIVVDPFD

Human Cbl-b (residues 40-426), sequence (Q13191 40-426): as the sequence (Q13191 40-426) above
c-Cbl, sequence (P22681 47-435): as the sequence (P22681 47-435) above

As for `Cn1cnnc1[C@@H](c1cccc(N2Cc3c(cc(CNC4(C)CCC4)cc3C(F)(F)F)C2=O)c1)[C@H]1C[C@@H](C)C1` (single isomer, unassigned) [Compound 379], in test [1], half-maximal inhibition (IC50) was put at 6.8 nM and the “fold-selectivity (Cbl-b over C-cbl)” value was determined as 1.6x. The IC50 in test [2] amounted to 9.5 nM. In test [3], this compound came in with a Fold of selectivity of 6.7× and a Kd of 0.9 nM. Also, in test [4], the affinity, expressed as Kd, was 6 nM.

In the case of `Cn1cnnc1[C@@H](c1cccc(N2Cc3c(cc(CNC4(C)CCC4)cc3C(F)(F)F)C2=O)c1)C1(F)COC1` (single isomer, unassigned) [Compound 380], in test [1], half-maximal inhibition (IC50) required 6 nM and the “fold-selectivity (Cbl-b over C-cbl)” value was 1.2x. The compound further returned an IC50 in test [2] of 7.1 nM. Moreover, in test [3], the Fold of selectivity is 5.0× and binding was characterised by a dissociation constant (Kd) of 0.8 nM. Further, the affinity in test [4], expressed as Kd, was 4 nM.

Take `Cn1cnnc1[C@H](c1cccc(N2Cc3c(cc(CNC4(C)CCC4)cc3C(F)(F)F)C2=O)c1)C1(F)COC1` (single isomer, unassigned) [Compound 381]: in test [1], the midpoint of inhibition, the IC50, lay at 8.8 nM and the “fold-selectivity (Cbl-b over C-cbl)” value turned out to be 1.9x. The compound also gave an IC50 in test [2] of 16 nM. In test [3], this compound returned a Fold of selectivity of 6.0× and a Kd of 2.7 nM. In addition, the Kd in test [4] was 16 nM.

For `CC(=O)C1CC([C@H](c2cccc(N3Cc4c(cc(CNC5(C)CCC5)cc4C(F)(F)F)C3=O)c2)c2nncn2C)C1` (single isomer, unassigned) [Compound 382], the IC50 in test [1] worked out at 150 nM; in test [2] it was 450 nM. The “fold-selectivity (Cbl-b over C-cbl)” value in test [1] came out at 3.0x. Besides, in test [3], the Fold of selectivity stood at 0.8×. Besides, the Kd amounted to 190 nM in test [3] and 150 nM in test [4].

For `CC(=O)C1CC([C@@H](c2cccc(N3Cc4c(cc(CNC5(C)CCC5)cc4C(F)(F)F)C3=O)c2)c2nncn2C)C1` (single isomer, unassigned) [Compound 383], the IC50 in test [1] turned out to be 19 nM; in test [2], 24 nM. In addition, the “fold-selectivity (Cbl-b over C-cbl)” value in test [1] came to 1.3x. In test [3], this compound gave a Fold of selectivity of 7.7×. In addition, the Kd in test [3] was 2.6 nM; in test [4] it was 20 nM.

With `CC(=O)C1CC([C@@H](c2cccc(N3Cc4c(cc(CNC5(C)CCC5)cc4C(F)(F)F)C3=O)c2)c2nncn2C)C1` (single isomer, unassigned) [Compound 384], in test [1], the IC50 came out at 24 nM and the “fold-selectivity (Cbl-b over C-cbl)” value turned out to be 2.8x. The compound also registered an IC50 in test [2] of 66 nM. Further, in test [3], the Fold of selectivity came to 5.6× and the Kd turned out to be 7 nM. Also, binding in test [4] was characterised by a dissociation constant (Kd) of 39 nM.

As to `CC(=O)C1CC([C@H](c2cccc(N3Cc4c(cc(CNC5(C)CCC5)cc4C(F)(F)F)C3=O)c2)c2nncn2C)C1` (single isomer, unassigned) [Compound 385], in test [1], it took 260 nM to reach half-maximal inhibition (IC50) and the “fold-selectivity (Cbl-b over C-cbl)” value came out at 2.8x. Moreover, in test [2], inhibition was half-maximal at 720 nM (IC50). Further, in test [3], the Fold of selectivity is given as 0.7× and the affinity, expressed as Kd, was 560 nM. The Kd in test [4] amounted to 390 nM.

`Cn1cnnc1[C@@H](c1cccc(N2Cc3c(cc(CNC4(C)CCC4)cc3C(F)(F)F)C2=O)c1)C1CC(OC(F)F)C1` (single isomer, unassigned) [Compound 387]: the IC50 is 130 nM in test [1] and 1000 nM in test [2]. The “fold-selectivity (Cbl-b over C-cbl)” value in test [1] came to 7.8x. The compound further returned a Fold of selectivity in test [3] of 9.5×. Moreover, the Kd in test [3] came to 200 nM; in test [4], 1900 nM.

For `Cn1cnnc1[C@@H](c1cccc(N2Cc3c(cc(CNC4(C)CCC4)cc3C(F)(F)F)C2=O)c1)C1CC(OC(F)F)C1` (single isomer, unassigned) [Compound 388], in test [1], the IC50 is 120 nM and the “fold-selectivity (Cbl-b over C-cbl)” value worked out at 7.6x. The compound further gave an IC50 in test [2] of 870 nM. Further, in test [3], the Fold of selectivity is on record as 9.7× and binding was put at a Kd of 100 nM. Moreover, the Kd in test [4] was found to be 970 nM.

With `Cn1cnnc1[C@H](c1cccc(N2Cc3c(cc(CNC4(C)CCC4)cc3C(F)(F)F)C2=O)c1)C1CC(OC(F)F)C1` (single isomer, unassigned) [Compound 389], in test [1], inhibition was half-maximal at 5.1 nM (IC50) and the “fold-selectivity (Cbl-b over C-cbl)” value was determined as 1.7x. Moreover, the IC50 in test [2] amounted to 8.9 nM. In test [3], the Fold of selectivity was found to be 4.4× and binding was put at a Kd of 2.9 nM. In test [4], the Kd amounted to 13 nM.

In the case of `Cn1cnnc1[C@H](c1cccc(N2Cc3c(cc(CNC4(C)CCC4)cc3C(F)(F)F)C2=O)c1)C1CC(OC(F)F)C1` (single isomer, unassigned) [Compound 390], in test [1], the IC50 came out at 5.5 nM and the “fold-selectivity (Cbl-b over C-cbl)” value is 1.0x. The compound further registered an IC50 in test [2] of 5.5 nM. In test [3], this compound yielded a Fold of selectivity of 3.0× and a Kd of 0.6 nM. This compound also yielded a Kd in test [4] of 1.7 nM.

Regarding `CC[C@@](O)(c1cccc(N2Cc3c(cc(CNC4(C)CCC4)cc3C(F)(F)F)C2=O)c1)c1nncn1C` (single isomer, unassigned) [Compound 392], the IC50 was 10 nM in test [1] and 14 nM in test [2]. In addition, the “fold-selectivity (Cbl-b over C-cbl)” value in test [1] is reported as 1.4x. In addition, the Fold of selectivity in test [3] worked out at 5.1×. For the same compound, the Kd in test [3] was 7.5 nM; in test [4] it was 38 nM.

Take `CC[C@](F)(c1cccc(N2Cc3c(cc(CNC4(C)CCC4)cc3C(F)(F)F)C2=O)c1)c1nncn1C` (single isomer, unassigned) [Compound 393]: in test [1], half-maximal inhibition (IC50) was put at 190 nM and the “fold-selectivity (Cbl-b over C-cbl)” value came out at 2.4x. Besides, the IC50 in test [2] amounted to 460 nM. Besides, in test [3], the Fold of selectivity amounted to 3.5× and binding was put at a Kd of 150 nM. Also, the affinity in test [4], expressed as Kd, was 540 nM.

Regarding `CC[C@@](F)(c1cccc(N2Cc3c(cc(CNC4(C)CCC4)cc3C(F)(F)F)C2=O)c1)c1nncn1C` (single isomer, unassigned) [Compound 394], in test [1], the IC50 stood at 4.6 nM and the “fold-selectivity (Cbl-b over C-cbl)” value was found to be 0.8x. In test [2], this compound yielded an IC50 of 3.8 nM. Also, in test [3], the Fold of selectivity is 2.4× and the Kd was 0.65 nM. In test [4], this compound gave a Kd of 1.4 nM.

For the compound `Cn1cnnc1[C@@H](c1cccc(N2Cc3c(cc(CNC4(C)CCC4)cc3C(F)(F)F)C2=O)c1)[C@H]1C[C@H](OC(F)(F)F)C1` (single isomer, unassigned) [Compound 395], in test [1], the IC50 stood at 75 nM and the “fold-selectivity (Cbl-b over C-cbl)” value is on record as 2.1x. The compound also gave an IC50 in test [2] of 160 nM. Besides, in test [3], the Fold of selectivity is on record as 7.1× and the Kd is 130 nM. Also, the Kd in test [4] came out at 920 nM.

As for `Cn1cnnc1[C@@H](c1cccc(N2Cc3c(cc(CNC4(C)CCC4)cc3C(F)(F)F)C2=O)c1)C1CC(OC(F)(F)F)C1` (single isomer, unassigned) [Compound 398], the 50% inhibitory concentration (IC50) in test [1] came to 5.8 nM; in test [2], 6.5 nM. In addition, the “fold-selectivity (Cbl-b over C-cbl)” value in test [1] is recorded as 1.1x. Also, in test [3], the Fold of selectivity worked out at 4.5×. Moreover, the figures for the Kd in test [3] and in test [4] were 2 nM and 9 nM, respectively.

Turning to `CC(=O)N(C)[C@H](c1cccc(N2Cc3c(cc(CNC4(C)CCC4)cc3C(F)(F)F)C2=O)c1)c1nncn1C` (single isomer, unassigned) [Compound 399], in test [1], the IC50 was found to be 530 nM and the “fold-selectivity (Cbl-b over C-cbl)” value is listed as 12x. Also, the IC50 in test [2] came to 6000 nM. In test [3], this compound came in with a Fold of selectivity of 17× and a Kd of 490 nM. The compound further had a Kd in test [4] of 8100 nM.

These data come from US12187709B2 (Genentech, Inc., priority 2021, dated 2025).
